In patent EP2931723B1, “NEW BICYCLIC COMPOUNDS AND THEIR USE AS ANTIBACTERIAL AGENTS AND -LACTAMASE INHIBITORS” (Fedora Pharmaceuticals Inc., priority 2012, dated 2014):
Read-outs that look alike come from different tables or passages of the source.

What was measured:
Assay type in all cases: cell-based
E. coli JMI 10767 = assay: MIC, antibacterial and synergistic activity; settings: Escherichia coli, JMI10767; E. coli JMI 10767 (Wt); substance alone
E. coli ATCC 25922 = assay: MIC, antibacterial and synergistic activity; settings: Escherichia coli, ATCC25922; E. coli ATCC 25922 (Wt); substance alone
E.coli JMI 4103 = assay: MIC, antibacterial and synergistic activity; settings: Escherichia coli, JMI4103; E.coli JMI 4103 (KPC-2, Tem-1, CMY-Type); substance alone
K. pneumo JMI 2697 = assay: MIC, antibacterial and synergistic activity; settings: K. pneumo JMI 2697 (IMP-4 (Cpase)); substance alone
Description: (§1) In the Tables 10 - 12, compounds herein disclosed were tested in combination with various antibiotics against metallo β-lactamase producing bacteria.

E. coli JMI 2692 = assay: MIC, antibacterial and synergistic activity; settings: Escherichia coli, JMI2692
Description: as §1

K. pneumo JMI 2693 = assay: MIC, antibacterial and synergistic activity; settings: K. pneumo JMI 2693 (NDM-1 (Cpase)); substance alone
Description: as §1

K. pneumo JMI 4106 = assay: MIC, antibacterial and synergistic activity; settings: K. pneumo JMI 4106 (KPC-3, TEM-1, SHV-12, SHV-141), substance alone
K. pneumo JMI 2674 [1] = assay: MIC, antibacterial and synergistic activity; settings: K. pneumo JMI 2674 (CTX-M15 (ESBL)); substance alone
K. pneumo JMI 4088 [2] = assay: MIC, antibacterial and synergistic activity; settings: K. pneumo JMI 4088 (KPC-3 (Cpase)); substance alone
P. aerug JMI 2686 [3] = assay: MIC, antibacterial and synergistic activity; settings: P. aerug JMI 2686 (KPC-2 (Cpase)); substance alone
K. pneumo JMI 2699 = assay: MIC, antibacterial and synergistic activity; settings: K. pneumo JMI 2699 (VIM-1, CTX-M3), substance alone
Description: (§2) In the Tables 10 - 12, compounds herein disclosed were tested in combination with various antibiotics against metallo β-lactamase producing bacteria. Table 3: Synergy of the inhibitor Ex. 1 (4 µg/mL) in combination with antibiotics

K. pneumo JMI 2674 [4] = assay: MIC, antibacterial and synergistic activity; settings: K. pneumo JMI 2674 (CTX-M15 (ESBL)); substance alone; remark: listed apart in the source
Description: as §2

E. coli JMI 10768 = assay: MIC, antibacterial and synergistic activity; settings: Escherichia coli, JMI10768; E. coli JMI 10768 (CTX-M15 (Weak ESBL)); substance alone
Description: as §2

K. pneumo JMI 4088 [5] = assay: MIC, antibacterial and synergistic activity; settings: K. pneumo JMI 4088 (KPC-3 (Cpase)); substance alone; remark: listed apart in the source
Description: as §2

E. coli JMI 10770 = assay: MIC, antibacterial and synergistic activity; settings: Escherichia coli, JMI10770; E. coli JMI 10770 (CTX-M15 (Hyper ESBL)); substance alone
E. coli JMI 11103 = assay: MIC, antibacterial and synergistic activity; settings: Escherichia coli, JMI11103, E. coli JMI 11103 (CTX-M15 (Intermediate ESBL)); substance alone
[6] = system: metallo β-lactamase producing bacteria; assay: MIC in combination with various antibiotics against metallo β-lactamase producing bacteria (Tables 10-12); settings: agent alone
Description: as §1

E. coli JMI 4080 = assay: MIC, antibacterial and synergistic activity; settings: Escherichia coli, JMI4080, E. coli JMI 4080 (Tem-10); substance alone
A. baumanii JMI 2659 = assay: MIC, antibacterial and synergistic activity; settings: Acinetobacter baumannii, JMI2659
K. pneumo JMI 2681 = assay: MIC, antibacterial and synergistic activity
K. pneumo JMI 2673 = assay: MIC, antibacterial and synergistic activity; settings: K. pneumo JMI 2673 (CTX-M14 (ESBL)); substance alone
P. aerug JMI 149 = assay: MIC, antibacterial and synergistic activity
E. coli JMI 2665 = assay: MIC, antibacterial and synergistic activity; settings: Escherichia coli
Description: as §2

E. coli JMI 2671 = assay: MIC, antibacterial and synergistic activity; settings: Escherichia coli, JMI2671, E. coli JMI 2671 (VIM-19 (Cpase)); substance alone
Description: as §2

P. aerug JMI 2686 [7] = assay: MIC, antibacterial and synergistic activity; settings: P. aerug JMI 2686 (KPC-2 (Cpase)); substance alone; remark: listed apart in the source
Description: as §2

K.pneumo JMI 4109 = assay: MIC, antibacterial and synergistic activity; settings: K.pneumo JMI 4109 (SHV-1, SHV-12); substance alone
E. cloacae JMI 36 = assay: MIC, antibacterial and synergistic activity; settings: Enterobacter cloacae, JMI36
[8] = E. coli JMI 2692 (NDM-1, TEM-1, CTX-M-15), substance alone, read-out: MIC
[9] = Serratia marcescens, Isolate No 35, Enzyme IMP-4, unit assumed
[10] = Citrobacter freundii, Isolate No 49469, Enzyme NDM-1, unit assumed
[11] = Enterobacter aerogenes, Isolate No 8397, Enzyme VIM-1, unit assumed
[12] = Enterobacter aerogenes, Isolate No 47683, Enzyme VIM-12, unit assumed
[13] = Enterobacter cloacae, Isolate No 4, Enzyme VIM-6, unit assumed
[14] = Enterobacter cloacae, Isolate No 10, Enzyme IMP-26, unit assumed
[15] = Enterobacter cloacae, Isolate No 25, Enzyme IMP-4, unit assumed
[16] = Enterobacter cloacae, Isolate No 1068, Enzyme VIM-2, unit assumed
[17] = Enterobacter cloacae, Isolate No 1471, Enzyme VIM-1, unit assumed
[18] = Enterobacter cloacae, Isolate No 3686, Enzyme IMP-1, unit assumed
[19] = Enterobacter cloacae, Isolate No 53477, Enzyme NDM-1, unit assumed
[20] = Escherichia coli, Isolate No 17, Enzyme NDM-1, unit assumed
[21] = Escherichia coli, Isolate No 49, Enzyme NDM-1, unit assumed
[22] = Escherichia coli, Isolate No 53749, Enzyme NDM-1, unit assumed
[23] = Klebsiella oxytoca, Isolate No 24825, Enzyme IMP-26, unit assumed
[24] = Klebsiella oxytoca, Isolate No 31141, Enzyme VIM-23, unit assumed
[25] = Klebsiella pneumoniae, Isolate No 16, Enzyme VIM-5, unit assumed
[26] = Klebsiella pneumoniae, Isolate No 38, Enzyme NDM-1, unit assumed
[27] = Providencia stuartii, Isolate No 26582, Enzyme VIM-1, unit assumed
[28] = Serratia marcescens, Isolate No 36098, Enzyme IMP-19, unit assumed

## C[C@H]1[C@H](NC(=O)/C(=N\OC(C)(C)C(=O)O)c2csc(N)n2)C(=O)N1S(=O)(=O)O [Aztreonam, aztreonam, reference compound]
E. coli JMI 10767
  MIC: ≤ 1 µg/mL
E. coli ATCC 25922
  MIC: 0.25 µg/mL
E.coli JMI 4103
  MIC: > 512 µg/mL
K. pneumo JMI 2697
  MIC: > 512 µg/mL
E. coli JMI 2692; [8]
  MIC: > 512 µg/mL
K. pneumo JMI 2693
  MIC: > 512 µg/mL
K. pneumo JMI 4106
  MIC: 512 µg/mL
K. pneumo JMI 4106; read-out: MIC
  MIC: > 512 µg/mL
K. pneumo JMI 2674 [1]
  MIC: 32 µg/mL
K. pneumo JMI 4088 [2]
  MIC: > 512 µg/mL
P. aerug JMI 2686 [3]
  MIC: > 512 µg/mL
K. pneumo JMI 2699
  MIC: 128 µg/mL
K. pneumo JMI 2699; read-out: MIC
  MIC: > 512 µg/mL
K. pneumo JMI 2674 [4]
  MIC: 512 µg/mL
E. coli JMI 10768
  MIC: 8 µg/mL
K. pneumo JMI 4088 [5]
  MIC: 512 µg/mL
E. coli JMI 10770
  MIC: 64 µg/mL
E. coli JMI 11103
  MIC: 32 µg/mL
[6]; Escherichia coli, Isolate No 13, Enzyme IMP-1
  MIC: 16
[6]; [9]
  MIC: ≤ 0.12 µg/mL
E. coli JMI 4080
  MIC: 64 µg/mL

## CC(C)(O/N=C(\C(=O)N[C@@H]1C(=O)N2C(C(=O)[O-])=C(C[n+]3ccccc3)CS[C@H]12)c1csc(N)n1)C(=O)O [Ceftazidime, ceftazidime, reference compound]
E. coli JMI 10767
  MIC: ≤ 1 µg/mL
E. coli ATCC 25922
  MIC: 0.25 µg/mL
E.coli JMI 4103
  MIC: > 512 µg/mL
K. pneumo JMI 2697
  MIC: > 512 µg/mL
E. coli JMI 2692; [8]
  MIC: > 512 µg/mL
K. pneumo JMI 2693
  MIC: > 512 µg/mL
K. pneumo JMI 4106; read-out: MIC
  MIC: > 512 µg/mL
A. baumanii JMI 2659
  MIC: 512 µg/mL
K. pneumo JMI 2681
  MIC: 512 µg/mL
K. pneumo JMI 2673
  MIC: 32 µg/mL
K. pneumo JMI 4088 [2]
  MIC: > 512 µg/mL
P. aerug JMI 149
  MIC: 256 µg/mL
K. pneumo JMI 2699; read-out: MIC
  MIC: > 512 µg/mL
K. pneumo JMI 2674 [4]
  MIC: 512 µg/mL
E. coli JMI 10768
  MIC: 8 µg/mL
E. coli JMI 2665; JMI2665, E. coli JMI 2665 (CMY-2 (Plasmid Cpase)), substance alone, read-out: MIC
  MIC: 8 µg/mL
E. coli JMI 2671
  MIC: 64 µg/mL
P. aerug JMI 2686 [7]
  MIC: 512 µg/mL
K.pneumo JMI 4109
  MIC: 8 µg/mL
E. coli JMI 10770
  MIC: 64 µg/mL
E. coli JMI 11103
  MIC: 32 µg/mL
E. cloacae JMI 36
  MIC: 128 µg/mL
[6]; [10]
  MIC: > 256 µg/mL
[6]; [11]
  MIC: > 256 µg/mL
[6]; [12]
  MIC: 256 µg/mL
[6]; [13]
  MIC: 256 µg/mL
[6]; [14]
  MIC: > 256 µg/mL
[6]; [15]
  MIC: > 256 µg/mL
[6]; [16]
  MIC: 128 µg/mL
[6]; Enterobacter cloacae, Isolate No 1280, Enzyme VIM-5, unit assumed
  MIC: 64 µg/mL
[6]; [17]
  MIC: > 256 µg/mL
[6]; Enterobacter cloacae, Isolate No 1874, Enzyme IMP-21, unit assumed
  MIC: 32 µg/mL
[6]; [18]
  MIC: > 256 µg/mL
[6]; [19]
  MIC: > 256 µg/mL
[6]; Escherichia coli, Isolate No 13, Enzyme IMP-1, unit assumed
  MIC: 256 µg/mL
[6]; [20]
  MIC: > 256 µg/mL
[6]; [21]
  MIC: > 256 µg/mL
[6]; [22]
  MIC: > 256 µg/mL
[6]; [23]
  MIC: > 256 µg/mL
[6]; [24]
  MIC: 128 µg/mL
[6]; [25]
  MIC: > 256 µg/mL
[6]; [26]
  MIC: > 256 µg/mL
[6]; [27]
  MIC: > 256 µg/mL
[6]; [9]
  MIC: 64 µg/mL
[6]; [28]
  MIC: 128 µg/mL
E. coli JMI 4080
  MIC: 64 µg/mL

## C[C@@H](O)[C@H]1C(=O)N2C(C(=O)O)=C(S[C@@H]3CN[C@H](C(=O)N(C)C)C3)[C@H](C)[C@H]12 [Meropenem, meropenem, reference compound]
E. coli JMI 10767
  MIC: ≤ 1 µg/mL
E. coli ATCC 25922
  MIC: 0.06 µg/mL
E.coli JMI 4103
  MIC: 64 µg/mL
K. pneumo JMI 2697
  MIC: 64 µg/mL
E. coli JMI 2692
  MIC: 256 µg/mL
K. pneumo JMI 2693
  MIC: 8 µg/mL
A. baumanii JMI 2659; A. baumanii JMI 2659 (Ges-14 (Cpase)), substance alone, read-out: MIC
  MIC: 64 µg/mL
K. pneumo JMI 2681; K. pneumo JMI 2681 (Oxa-48 (Cpase)), substance alone, read-out: MIC
  MIC: 64 µg/mL
K. pneumo JMI 2673
  MIC: ≤ 1 µg/mL
K. pneumo JMI 2674 [1]
  MIC: ≤ 1 µg/mL
P. aerug JMI 149; P. aerug JMI 149 (Bla+++D+), substance alone, read-out: MIC
  MIC: 4 µg/mL
K. pneumo JMI 2699; read-out: MIC
  MIC: 32 µg/mL
E. coli JMI 10768
  MIC: ≤ 1 µg/mL
E. coli JMI 2665; JMI2665
  MIC: ≤ 1 µg/mL
K. pneumo JMI 4088 [5]
  MIC: 512 µg/mL
E. coli JMI 2671
  MIC: 64 µg/mL
P. aerug JMI 2686 [7]
  MIC: 512 µg/mL
K.pneumo JMI 4109
  MIC: ≤ 1 µg/mL
E. coli JMI 10770
  MIC: ≤ 1 µg/mL
E. coli JMI 11103
  MIC: ≤ 1 µg/mL
E. cloacae JMI 36; E. cloacae JMI 36 (P99), substance alone, read-out: MIC
  MIC: ≤ 1 µg/mL
[6]; [10]
  MIC: 16 µg/mL
[6]; [11]
  MIC: 64 µg/mL
[6]; [12]
  MIC: 8 µg/mL
[6]; [13]
  MIC: 2 µg/mL
[6]; [14]
  MIC: 16 µg/mL
[6]; [15]
  MIC: 16 µg/mL
[6]; [16]
  MIC: 2 µg/mL
[6]; [17]
  MIC: 2 µg/mL
[6]; [18]
  MIC: 8 µg/mL
[6]; [19]
  MIC: 32 µg/mL
[6]; [20]
  MIC: 32 µg/mL
[6]; [21]
  MIC: 8 µg/mL
[6]; [22]
  MIC: 64 µg/mL
[6]; [23]
  MIC: 32 µg/mL
[6]; [24]
  MIC: 2 µg/mL
[6]; [25]
  MIC: 8 µg/mL
[6]; [26]
  MIC: 32 µg/mL
[6]; [27]
  MIC: 1 µg/mL
[6]; [9]
  MIC: 8 µg/mL
[6]; [28]
  MIC: 8 µg/mL
E. coli JMI 4080
  MIC: ≤ 1 µg/mL
